{"source": "patent US20210270843A1", "about": "“Immune Monitoring of Neuro-Inflammatory Amyotrophic Lateral Sclerosis (ALS)” (RAPA THERAPEUTICS, LLC, priority 2018, published 2021)", "molecules": {"B1": {"name": "rhu CD40L: recombinant human (rhu) CD40L molecule (protein, UniProt P29965 113-261, looked up)", "CD40 ligand, soluble form": "MQKGDQNPQIAAHVISEASSKTTSVLQWAEKGYYTMSNNLVTLENGKQLTVKRQGLYYIYAQVTFCSNREASSQAPFIASLCLKSPGRFERILLRAANTHSSAKPCGQQSIHLGGVFELQPGASVFVNVTDPSQVSHGTGFTSFGLLKL"}}, "key": {"[1]": {"test_system": "T cell receptor repertoire", "assay": "RNA-based T cell receptor repertoire sequencing of ALS patient PBMC pre- and post-etanercept therapy"}, "[2]": {"test_system": "peripheral blood mononuclear cells from ALS patient", "assay": "Autonomous cytokine secretion of ALS patient PBMC before and during etanercept therapy", "format": "in vivo, human", "settings": "etanercept 50 mg per week s.c., PBMC incubated 24 hr without stimulation, similar on three values over three months", "protocol": "We have observed that ALS patients can manifest autonomous inflammatory cytokine secretion when incubation of T cell- and monocyte-containing inoculum occurs for 24 hours in X-Vivo 20 media supplemented only with 5% human serum (FIG. 3). FIG. 3 depicts ALS patient and normal control autonomous cytokine secretion. ALS patient (“ALS”) and normal control (“NC”) peripheral blood mononuclear cells were either not separated (FIG. 3, right panel; mixture of T cells and monocytes), or separated into CD14^+ monocyte cells (FIG. 3, left panel) or CD3^+ T cells (FIG. 3, middle panel). The cells were incubated for 24 hours in media without any stimulation additives. After 24 hours, the supernatant was harvested and tested for cytokine content; TNF-α content is shown, with result described as pg per ml per 1×10^6 cells per 24 hours. […]\nWe reasoned that detection of autonomous secretion of inflammatory cytokines will have potential clinical implications, for example, in the monitoring of ALS disease response to investigational therapy. Towards this aim, we evaluated cytokine secretion in an ALS patient prior to and then after experimental therapy with the anti-TNF-α soluble recombinant receptor, etancercept (Enbrel®); there have been no reports of clinical trials evaluating etanercept therapy of ALS. […]"}, "PBMC": {"test_system": "PBMC", "assay": "CD40 ligand-driven cytokine secretion of PBMC (24 h culture, multiplex assay)", "format": "cell-based", "settings": "X-Vivo 20 media with 5% human serum", "from_the_text": "Given this possibility, we evaluated whether simple addition of the recombinant human (rhu) CD40L molecule might uncover autonomous inflammatory cytokine secretion in ALS patients. There are no reports in the literature to date pertaining to CD40L-stimulation of ALS patient PBMC. […] Therefore, the detection of the inflammatory subset of ALS can be expanded by inclusion of patients that secrete cytokines autonomously and those patients that secrete inflammatory cytokines after CD40L stimulation. Patient hypersensitivity to CD40 ligand is driven by an imbalance in the post-CD40 receptor signaling pathway, with increased TRAF6 contribution to the signaling cascade during neuro-inflammation; importantly, the TRAF2 and TRAF3 family members inhibit post-CD40 signaling. As such, given this information, our monitoring method will also include Western Blot analyses for the detection of ALS patient balance of the TRAF family of proteins.\nIn FIG. 6, a sibling of a subject who was a carrier for the C9orf72 mutation was evaluated for autonomous cytokine secretion. […] This illustrates the importance of both neurologic and immunologic risk factors. […]"}, "[3]": {"settings": "individual clones, post- versus pre-etanercept"}}, "note": "Where “and” joins values, the source holds several entries; their conditions need not be identical. Identical values can stand only once.", "data": [{"molecule": "etanercept", "values": [{"measurement": "TCR clonality, Diversity Index (CHAOE) after therapy", "setting": "[1]; ALS patient post-therapy, pre-therapy sample approximately 650,000, normal controls ~300,000", "result": "approximately 599,000"}, {"measurement": "reduction in TCR clonality in post-therapy sample", "setting": "[1]; ALS patient, post- versus pre-therapy", "result": "~10", "unit": "%"}, {"measurement": "T cell clonal contraction", "setting": "[1]; [3]", "result": "more than 4 log and ~4 log"}, {"measurement": "T cell clonal expansion", "setting": "[1]; [3]", "result": "more than 4 log and ~4 log"}, {"measurement": "post-treatment frequency of contracted T cell clones", "setting": "[1]; several clones, pre-etanercept frequencies 259 to 598", "result": 0.01}, {"measurement": "autonomous secretion of IL-6", "setting": "[2]", "result": "reduced"}, {"measurement": "autonomous secretion of TNF-α", "setting": "[2]", "result": "reduced"}]}, {"molecule": "B1", "values": [{"measurement": "inflammatory cytokine production", "setting": "PBMC; PBMC from an ALS patient", "result": "can induce inflammatory cytokine production"}, {"measurement": "cytokine secretion after stimulation with CD40L", "setting": "PBMC; PBMC from sibling of a C9orf72 mutation carrier", "result": "high levels of cytokine secretion"}]}]}
